# Test results published in patent US5684026A, “Aminocyclopentane derivative” (priority 1994, dated 1997).
# pKi: −log10 of the molar value.
# Legend:
# [1] = molecular target: T1, α-Glucosidase (Baker's yeast, EC 3.2.1.20) (Saccharomyces cerevisiae, UniProt P53341); assay: α-Glucosidase enzyme inhibition assay (p-nitrophenyl α-D-glucopyranoside); assay type: biochemical; conditions: compared with deoxynojirimycin; summary of Tables 1 and 2
# T1 construct: purchased Sigma; host or cells: Baker's yeast
# Method: By using a 96-well microplate, the absorbance (at 405 nm) of liberated p- or o-nitrophenol was measured with a microplate reader (MPR-4Ai, manufactured by Tosoh Corporation).
# Incubation was carried out at 37° C. by using a natural incubator (Compact NIB-10, manufactured by Iwaki Glass Co., Ltd.).
# The enzymes employed herein [α-glucosidase (Baker's yeast), β-glucosidase (Almonds), α-galactosidase (E. coli), β-galactosidase (E. coli) and β-galactosidase (Bovine Liver)] were all purchased from Sigma.
# The substrates (p- or o-nitrophenylglycoside) of these enzymes were all purchased from Sigma.
# 1) α-Glucosidase (Baker's yeast, EC 3.2.1.20) [described in H. Halvorson and L. Ellias, Biochim. Biophys. Acta, 30, 28-40 (1958)]
# Into each well were introduced an aqueous solution of a sample (1 μl), a 0.66 mM solution of p-nitrophenyl α-D-glucopyranoside in a buffer (98 μl) and a (0.4 mg/ml) enzyme solution in the buffer (1 μl) to give a total volume of 100 μl. After incubating at 37° C. for 30 minutes, the reaction was ceased by adding a 1M aqueous solution of sodium carbonate (100 μl). Then the absorbance (A405) of p-nitrophenol liberated by this enzyme reaction was measured. To give the blank absorbance (Ablank), the sample (1 μl) and the substrate (99 μl) were incubated in the same manner and an aqueous solution of sodium carbonate (100 μl) was added followed by the measurement of the absorbance. […] The sample at each concentration, the blank and the control were treated each in two wells at the same time. As the buffer, a 0.1M phosphate buffer solution (pH 6.8, prepared from KH2 PO4 and K2 HPO4) was employed.
# [2] = molecular target: T2, α-glucosidase I (Baker's yeast) (Saccharomyces cerevisiae, UniProt P53008); assay: Inhibitory activity on α-glucosidase I (Ki); assay type: biochemical; conditions: α-glucosidase I, substrate 0.25-4.0 mM, 37° C., 1 hour; read-out: Ki
# T2 construct: made in house; host or cells: Baker's yeast (native enzyme, prepared by the cited method)
# T2 sequence (P53008 25-833 limits assumed): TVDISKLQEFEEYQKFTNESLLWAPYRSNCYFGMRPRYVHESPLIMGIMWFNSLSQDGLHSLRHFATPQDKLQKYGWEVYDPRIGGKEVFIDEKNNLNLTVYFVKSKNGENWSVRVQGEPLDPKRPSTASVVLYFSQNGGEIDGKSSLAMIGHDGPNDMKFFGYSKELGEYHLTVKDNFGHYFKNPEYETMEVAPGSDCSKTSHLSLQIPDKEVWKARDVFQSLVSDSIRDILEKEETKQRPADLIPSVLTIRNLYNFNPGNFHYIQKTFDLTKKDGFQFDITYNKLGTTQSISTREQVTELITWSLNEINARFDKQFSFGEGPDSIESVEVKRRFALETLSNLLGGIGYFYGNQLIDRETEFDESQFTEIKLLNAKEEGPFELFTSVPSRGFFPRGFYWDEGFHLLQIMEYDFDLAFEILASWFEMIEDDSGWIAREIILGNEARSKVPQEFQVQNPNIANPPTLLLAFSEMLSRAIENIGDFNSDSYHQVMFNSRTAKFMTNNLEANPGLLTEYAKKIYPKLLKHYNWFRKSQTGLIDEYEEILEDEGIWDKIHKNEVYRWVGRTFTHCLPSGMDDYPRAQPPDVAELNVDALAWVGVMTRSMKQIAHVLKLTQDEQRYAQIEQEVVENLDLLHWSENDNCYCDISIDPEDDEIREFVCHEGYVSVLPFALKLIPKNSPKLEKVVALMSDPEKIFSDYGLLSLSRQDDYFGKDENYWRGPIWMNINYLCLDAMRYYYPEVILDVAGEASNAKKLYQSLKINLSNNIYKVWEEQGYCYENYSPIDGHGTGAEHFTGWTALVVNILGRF
# Method: The α-glucosidase I (Baker's yeast) and its substrate (α-D-Glcl→2α-D-Glcl→3α-D-Glc-O(CH2)6 COOCH3) employed herein were prepared in accordance with the method of I. Neverova et al., Anal. Biochem., 222, 190-196 (1994).
# The following measurements were performed by the methods described in this literature.
# Namely, 25 μl of a buffer solution containing α-glucosidase I was added to a microtube containing the above-mentioned sample and the substrate (α-D-Glcl→2α-D-Glcl→3α-D-Glc-O(CH2)6 COOCH3). After incubating at 37° C. for 1 hour, a 1.25M tris hydrochloride buffer solution (pH 7.6, 25 μl) was added to thereby cease .the reaction. Then the reaction mixture was transferred onto a microplate followed by the addition of 250 μl of a reaction buffer solution [developing solution; 1M tris hydrochloride buffer solution (pH 7.2) containing glucose oxidase (5 units/ml, manufactured by Sigma), horseradish peroxidase (1 purpurogallin units, manufactured by Sigma) and o-dianisidine dihydrochloride (40 μg/ml)]. Then the mixture was incubated at 37° C. for 30 minutes or until an increase in the absorbance attained a plateau. Then the absorbance (A450-650) of the o-dianisidine formed and oxidized by this enzyme reaction was measured. As a blank, the above reaction was repeated but adding neither the above-mentioned sample nor substrate and the absorbance was measured. Also, the above-mentioned reaction buffer solution was added to D-glucose of a known concentration and the resulting mixture was incubated followed by the measurement of the absorbance to thereby examine a relationship between D-glucose concentration and absorbance. Each measurement was effected in two wells at the same time.
# Based on the above-mentioned relationship between D-glucose concentration and absorbance, the amount of glucose liberated from the substrate due to the enzyme reaction of α-glucosidase I in the presence of the sample was determined. From the result thus obtained, Km was determined and then Ki was determined from the sample amount and the Km value.
# B16 melanoma cells = assay: Cytotoxicity, survival ratio by Trypan blue staining; assay type: cell-based; conditions: 5-100 μM, 24 hours
# Method: After 24 hours, the medium was replaced with Dulbecco-modified Eagle medium containing each sample. The incubation was continued under the same conditions for additional 24 hours. Then the cells were harvested by adding EDTA, washed with PBS and stained with 0.3% Trypan blue solution to thereby determine the survival ratio of the cells.
# T1 sequence (P53341 whole entry): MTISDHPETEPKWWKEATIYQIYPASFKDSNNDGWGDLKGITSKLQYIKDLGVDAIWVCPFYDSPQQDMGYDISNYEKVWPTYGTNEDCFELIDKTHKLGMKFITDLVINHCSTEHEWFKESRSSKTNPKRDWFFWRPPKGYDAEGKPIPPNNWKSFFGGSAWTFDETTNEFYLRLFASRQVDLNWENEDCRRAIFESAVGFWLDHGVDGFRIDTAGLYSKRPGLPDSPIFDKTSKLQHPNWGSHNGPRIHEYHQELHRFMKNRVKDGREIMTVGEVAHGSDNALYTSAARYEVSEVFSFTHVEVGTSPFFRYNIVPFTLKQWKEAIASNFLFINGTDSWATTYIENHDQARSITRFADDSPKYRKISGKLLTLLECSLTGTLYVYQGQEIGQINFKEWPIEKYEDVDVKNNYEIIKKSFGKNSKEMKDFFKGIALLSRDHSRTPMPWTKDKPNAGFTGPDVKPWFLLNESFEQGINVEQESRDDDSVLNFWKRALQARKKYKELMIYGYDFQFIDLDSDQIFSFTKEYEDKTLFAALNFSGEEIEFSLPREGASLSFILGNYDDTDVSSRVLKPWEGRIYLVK
smiles,measurement,setting,value
"OC[C@@]12OC(Nc3ccccc3)=N[C@@H]1[C@H](O)[C@@H](O)[C@@H]2O [Compound 1-2L, (1S,5R,6S,7R,8S)-1-hydroxymethyl-3-phenylamino-2-oxa-4-azabicyclo[3.3.0]oct-3-ene-6,7,8-triol]",inhibitory activity against α-glucosidase (in words),[1],remarkably strong inhibitory activities
same,pKi,[2],4.29
same,cytotoxicity (in words),B16 melanoma cells,no cytotoxicity
